{"source": "ChEMBL document CHEMBL6078695", "about": "“Design, synthesis, and biological evaluations of 5-aryl-pyrazole-3-carboxamide derivatives as selective CB2 receptor agonists for the treatment of colitis” (Eur J Med Chem, 2025)", "note": "Active and inactive are the calls of the source. The calls are words filed in the database; no cut-off is given here.", "data": [{"test_system": "Mus musculus", "test": "Antiinflammatory activity against DSS-induced colitis C57/BL6 mouse model assessed as loss of goblet cells at 10 to 30 mg/kg, po administered for 9 days by H and E staining based analysis", "assay_type": "functional, organism-based", "conditions": "dose 10-30 mg/kg, time 9.0 day", "values": [{"smiles": "CCCCn1nc(C(=O)NC(C)(C)CO)cc1-c1cccs1", "Activity": "Active"}]}, {"test_system": "Mus musculus", "test": "Antiinflammatory activity against DSS-induced colitis C57/BL6 mouse model assessed as reduction in inflammatory infiltration at 10 to 30 mg/kg, po administered for 9 days by H and E staining based analysis", "assay_type": "functional, organism-based", "conditions": "dose 10-30 mg/kg, time 9.0 day", "values": [{"smiles": "CCCCn1nc(C(=O)NC(C)(C)CO)cc1-c1cccs1", "Activity": "Active"}]}, {"target": "T1, Cannabinoid receptor 2 (Homo sapiens, UniProt P34972)", "T1 sequence (P34972 whole entry)": "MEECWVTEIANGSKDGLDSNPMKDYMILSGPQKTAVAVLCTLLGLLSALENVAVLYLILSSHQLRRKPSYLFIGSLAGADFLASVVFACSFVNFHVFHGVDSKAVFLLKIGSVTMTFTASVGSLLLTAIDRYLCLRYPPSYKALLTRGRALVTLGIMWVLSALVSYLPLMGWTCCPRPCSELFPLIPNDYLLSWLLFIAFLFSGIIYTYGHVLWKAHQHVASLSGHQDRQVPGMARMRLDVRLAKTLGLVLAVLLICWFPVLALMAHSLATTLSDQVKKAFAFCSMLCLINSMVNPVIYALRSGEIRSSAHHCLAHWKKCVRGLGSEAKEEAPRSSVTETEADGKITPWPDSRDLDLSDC", "test": "Antagonist activity at human CB2 receptor expressed in CHO cells co-transfected with human Galpha16 assessed as increase in intracellular calcium mobilization", "assay_type": "functional, cell-based", "conditions": "filed as antagonist", "values": [{"smiles": "CCCCn1nc(C(=O)NC(C)(C)CO)cc1-c1cccs1", "Activity": "Active"}]}, {"target": "T2, Cannabinoid receptor 1 (Homo sapiens, UniProt P21554)", "T2 sequence (P21554 whole entry)": "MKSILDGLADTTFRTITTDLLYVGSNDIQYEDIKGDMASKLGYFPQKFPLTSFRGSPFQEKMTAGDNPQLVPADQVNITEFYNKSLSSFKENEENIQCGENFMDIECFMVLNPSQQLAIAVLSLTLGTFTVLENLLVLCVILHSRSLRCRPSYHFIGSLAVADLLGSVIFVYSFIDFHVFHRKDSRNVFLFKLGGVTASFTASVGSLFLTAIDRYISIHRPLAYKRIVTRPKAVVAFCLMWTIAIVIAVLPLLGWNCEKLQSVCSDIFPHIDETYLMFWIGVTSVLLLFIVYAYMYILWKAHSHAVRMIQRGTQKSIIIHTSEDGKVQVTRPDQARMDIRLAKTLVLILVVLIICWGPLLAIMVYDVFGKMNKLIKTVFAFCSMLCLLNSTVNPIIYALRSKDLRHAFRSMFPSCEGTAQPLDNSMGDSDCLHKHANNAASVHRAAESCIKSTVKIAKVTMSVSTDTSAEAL", "test": "(§1) Agonist activity at human CB1 receptor expressed in CHO-K1 cells co-transfected with human Galpha16 assessed as intracellular calcium flux at 10 uM relative to control", "assay_type": "functional, cell-based", "conditions": "not given", "units": {"Emax": "%"}, "values": [{"smiles": "CCCCCn1nc(C(=O)NC(C)(C)CO)cc1-c1sccc1C", "Emax": 30}]}, {"target": "T2, Cannabinoid receptor 1", "test": "as §1", "assay_type": "functional, cell-based", "conditions": "filed as agonist", "units": {"Emax": "%"}, "values": [{"smiles": "CCCCCn1nc(C(=O)NC(C)(C)CO)cc1-c1cccn1CC", "Emax": 90}, {"smiles": "CCCCCn1nc(C(=O)NC(C)(C)CO)cc1-c1cccs1", "Emax": 70}, {"smiles": "CCCCCCC(C)(C)c1ccc([C@@H]2C[C@H](C)CC[C@H]2CCCO)c(O)c1", "Emax": 100}]}, {"test_system": "Mus musculus", "test": "Antiinflammatory activity against DSS-induced colitis in po dosed C57/BL6 mouse model assessed as suppression of IL-1beta expression administered for 9 days by ELISA analysis", "assay_type": "functional, organism-based", "conditions": "dose 10-30 mg/kg, time 9.0 day", "values": [{"smiles": "CCCCn1nc(C(=O)NC(C)(C)CO)cc1-c1cccs1", "Activity": "Dose-dependent-effect"}]}, {"target": "T1, Cannabinoid receptor 2", "test": "Agonist activity at human CB2 receptor expressed in CHO-K1 cells co-transfected with human Galpha16 assessed as intracellular calcium flux", "assay_type": "functional, cell-based", "conditions": "not given", "units": {"EC50": "nM"}, "values": [{"smiles": "CCCCCn1nc(-c2cccn2C)cc1C(=O)NC(C)(C)CO", "EC50": "> 100000"}, {"smiles": "CCCCCn1nc(C(=O)NC(C)(C)CO)cc1-c1cccn1C", "EC50": 47.9}, {"smiles": "CCCCCn1nc(C(=O)NC(C)(C)CO)cc1-c1cccn1CC", "EC50": 7.7}, {"smiles": "CCCCCn1nc(C(=O)NC(C)(C)CO)cc1-c1cccs1", "EC50": 8.8}, {"smiles": "CCCCn1nc(C(=O)NC(C)(C)CO)cc1-c1cccs1", "EC50": 16.2}, {"smiles": "CCCCCn1nc(C(=O)NC(C)(C)CO)cc1-c1sccc1C", "EC50": 274}, {"smiles": "CCCCCCC(C)(C)c1ccc([C@@H]2C[C@H](C)CC[C@H]2CCCO)c(O)c1", "EC50": 35}]}, {"test_system": "Mus musculus", "test": "Antiinflammatory activity against DSS-induced colitis C57/BL6 mouse model assessed as disruption of epithelial layer in colon at 10 to 30 mg/kg, po administered for 9 days by H and E staining based analysis", "assay_type": "functional, organism-based", "conditions": "dose 10-30 mg/kg, time 9.0 day", "values": [{"smiles": "CCCCn1nc(C(=O)NC(C)(C)CO)cc1-c1cccs1", "Activity": "Active"}]}, {"target": "T1, Cannabinoid receptor 2", "test": "Agonist activity at human CB2 receptor expressed in HEK293 cells assessed as forskolin-stimulated cAMP accumulation preincubated with compound for 10 mins followed by forskolin induction and measured after 2 hrs by HTRF analysis", "assay_type": "functional, cell-based", "conditions": "not given", "units": {"EC50": "nM"}, "values": [{"smiles": "CCCCn1nc(C(=O)NC(C)(C)CO)cc1-c1cccs1", "EC50": 15.1}, {"smiles": "CCCCCCC(C)(C)c1ccc([C@@H]2C[C@H](C)CC[C@H]2CCCO)c(O)c1", "EC50": 16.3}]}, {"target": "T1, Cannabinoid receptor 2", "test": "Antagonist activity at human CB2 receptor expressed in CHO cells co-transfected with human Galpha16 assessed as receptor desensitization by measuring reduction in calcium response", "assay_type": "functional, cell-based", "conditions": "filed as antagonist", "values": [{"smiles": "CCCCn1nc(C(=O)NC(C)(C)CO)cc1-c1cccs1", "Activity": "Active"}]}, {"test_system": "Mus musculus", "test": "Antiinflammatory activity against DSS-induced colitis C57/BL6 mouse model assessed as delay in hematochezia development at 10 to 30 mg/kg, po administered for 9 days", "assay_type": "functional, organism-based", "conditions": "dose 10-30 mg/kg, time 9.0 day", "values": [{"smiles": "CCCCn1nc(C(=O)NC(C)(C)CO)cc1-c1cccs1", "Activity": "Active"}]}, {"target": "T2, Cannabinoid receptor 1", "test": "Antagonist activity at human CB1 receptor expressed in CHO-K1 cells co-transfected with human Galpha16 assessed as intracellular calcium flux", "assay_type": "functional, cell-based", "conditions": "not given", "units": {"IC50": "nM"}, "values": [{"smiles": "CCCCCn1nc(-c2cccn2C)cc1C(=O)NC(C)(C)CO", "IC50": "> 100000"}, {"smiles": "CCCCCn1nc(C(=O)NC(C)(C)CO)cc1-c1cccn1C", "IC50": "> 100000"}, {"smiles": "CCCCCn1nc(C(=O)NC(C)(C)CO)cc1-c1cccn1CC", "IC50": "> 100000"}, {"smiles": "CCCCCn1nc(C(=O)NC(C)(C)CO)cc1-c1cccs1", "IC50": "> 100000"}, {"smiles": "CCCCn1nc(C(=O)NC(C)(C)CO)cc1-c1cccs1", "IC50": "> 100000"}, {"smiles": "CCCCCn1nc(C(=O)NC(C)(C)CO)cc1-c1sccc1C", "IC50": "> 100000"}]}, {"test_system": "Mus musculus", "test": "Antiinflammatory activity against DSS-induced colitis C57/BL6 mouse model assessed as reduction in body weight loss at 10 to 30 mg/kg, po administered for 9 days", "assay_type": "functional, organism-based", "conditions": "dose 10-30 mg/kg, time 9.0 day", "values": [{"smiles": "CCCCn1nc(C(=O)NC(C)(C)CO)cc1-c1cccs1", "Activity": "Active"}]}, {"target": "T1, Cannabinoid receptor 2", "test": "Antagonist activity at human CB2 receptor expressed in CHO cells co-transfected with human Galpha16 assessed as increase in intracellular calcium mobilization at 10 uM", "assay_type": "functional, cell-based", "conditions": "filed as antagonist", "values": [{"smiles": "CCCCCCC(C)(C)c1ccc([C@@H]2C[C@H](C)CC[C@H]2CCCO)c(O)c1", "Activity": "Active"}]}, {"test_system": "Mus musculus", "test": "Antiinflammatory activity against DSS-induced colitis C57/BL6 mouse model assessed as delay in diarrhoea development at 10 to 30 mg/kg, po administered for 9 days", "assay_type": "functional, organism-based", "conditions": "dose 10-30 mg/kg, time 9.0 day", "values": [{"smiles": "CCCCn1nc(C(=O)NC(C)(C)CO)cc1-c1cccs1", "Activity": "Active"}]}, {"target": "T1, Cannabinoid receptor 2", "test": "Antagonist activity at human CB2 receptor expressed in CHO cells co-transfected with human Galpha16 assessed as increase in intracellular calcium mobilization at 10 uM preincubated with compound for 10 mins followed by HBSS buffer wash and re-treated with compound at same concentration", "assay_type": "functional, cell-based", "conditions": "filed as antagonist", "values": [{"smiles": "CCCCCCC(C)(C)c1ccc([C@@H]2C[C@H](C)CC[C@H]2CCCO)c(O)c1", "Activity": "Active"}]}, {"target": "T1, Cannabinoid receptor 2", "test": "Antagonist activity at human CB2 receptor expressed in CHO cells co-transfected with human Galpha16 assessed as receptor desensitization by measuring reduction in calcium response at 10 uM", "assay_type": "functional, cell-based", "conditions": "filed as antagonist", "values": [{"smiles": "CCCCCCC(C)(C)c1ccc([C@@H]2C[C@H](C)CC[C@H]2CCCO)c(O)c1", "Activity": "Active"}]}, {"test_system": "Mus musculus", "test": "Antiinflammatory activity against DSS-induced colitis C57/BL6 mouse model assessed as reduction in disease activity index (DAI) score at 10 to 30 mg/kg, po administered for 9 days", "assay_type": "functional, organism-based", "conditions": "dose 10-30 mg/kg, time 9.0 day", "values": [{"smiles": "CCCCn1nc(C(=O)NC(C)(C)CO)cc1-c1cccs1", "Activity": "Active"}]}, {"target": "T1, Cannabinoid receptor 2", "test": "Agonist activity at human CB2 receptor expressed in CHO cells assessed as reduction in ERK1/2 phosphorylation at 10 uM by Western blot analysis", "assay_type": "functional, cell-based", "conditions": "not given", "values": [{"smiles": "CCCCn1nc(C(=O)NC(C)(C)CO)cc1-c1cccs1", "Activity": "inactive"}, {"smiles": "CCCCCCC(C)(C)c1ccc([C@@H]2C[C@H](C)CC[C@H]2CCCO)c(O)c1", "Activity": "inactive"}]}, {"target": "T1, Cannabinoid receptor 2", "test": "Agonist activity at human CB2 receptor expressed in CHO-K1 cells co-transfected with human Galpha16 assessed as intracellular calcium flux at 10 uM relative to control", "assay_type": "functional, cell-based", "conditions": "filed as agonist", "units": {"Emax": "%"}, "values": [{"smiles": "CCCCCn1nc(C(=O)NC(C)(C)CO)cc1-c1cccn1C", "Emax": 90}, {"smiles": "CCCCCn1nc(C(=O)NC(C)(C)CO)cc1-c1cccn1CC", "Emax": 76}, {"smiles": "CCCCCn1nc(C(=O)NC(C)(C)CO)cc1-c1cccs1", "Emax": 95}, {"smiles": "CCCCn1nc(C(=O)NC(C)(C)CO)cc1-c1cccs1", "Emax": 90}, {"smiles": "CCCCCn1nc(C(=O)NC(C)(C)CO)cc1-c1sccc1C", "Emax": 85}, {"smiles": "CCCCCCC(C)(C)c1ccc([C@@H]2C[C@H](C)CC[C@H]2CCCO)c(O)c1", "Emax": 100}]}, {"target": "T1, Cannabinoid receptor 2", "test": "Antagonist activity at human CB2 receptor expressed in CHO-K1 cells co-transfected with human Galpha16 assessed as intracellular calcium flux", "assay_type": "functional, cell-based", "conditions": "not given", "units": {"IC50": "nM"}, "values": [{"smiles": "CCCCCn1nc(C(=O)NC(C)(C)CO)cc1-c1cccn1CC", "IC50": "> 100000"}, {"smiles": "CCCCn1nc(C(=O)NC(C)(C)CO)cc1-c1cccs1", "IC50": "> 100000"}, {"smiles": "CCCCCn1nc(C(=O)NC(C)(C)CO)cc1-c1sccc1C", "IC50": "> 100000"}, {"smiles": "CCCCCCC(C)(C)c1ccc([C@@H]2C[C@H](C)CC[C@H]2CCCO)c(O)c1", "IC50": "> 100000"}]}, {"target": "T2, Cannabinoid receptor 1", "test": "Agonist activity at human CB1 receptor expressed in CHO-K1 cells co-transfected with human Galpha16 assessed as intracellular calcium flux", "assay_type": "functional, cell-based", "conditions": "not given", "units": {"EC50": "nM"}, "values": [{"smiles": "CCCCCn1nc(-c2cccn2C)cc1C(=O)NC(C)(C)CO", "EC50": "> 100000"}, {"smiles": "CCCCCn1nc(C(=O)NC(C)(C)CO)cc1-c1cccn1C", "EC50": "> 100000"}, {"smiles": "CCCCCn1nc(C(=O)NC(C)(C)CO)cc1-c1cccn1CC", "EC50": 37.5}, {"smiles": "CCCCCn1nc(C(=O)NC(C)(C)CO)cc1-c1cccs1", "EC50": 593}, {"smiles": "CCCCn1nc(C(=O)NC(C)(C)CO)cc1-c1cccs1", "EC50": "> 100000"}, {"smiles": "CCCCCn1nc(C(=O)NC(C)(C)CO)cc1-c1sccc1C", "EC50": 424}]}, {"test_system": "Mus musculus", "test": "Antiinflammatory activity against DSS-induced colitis in po dosed C57/BL6 mouse model assessed as suppression of TNF-alpha expression administered for 9 days by ELISA analysis", "assay_type": "functional, organism-based", "conditions": "dose 10-30 mg/kg, time 9.0 day", "values": [{"smiles": "CCCCn1nc(C(=O)NC(C)(C)CO)cc1-c1cccs1", "Activity": "Dose-dependent-effect"}]}, {"test_system": "Mus musculus", "test": "Antiinflammatory activity against DSS-induced colitis in po dosed C57/BL6 mouse model assessed as suppression of IL-6 expression administered for 9 days by ELISA analysis", "assay_type": "functional, organism-based", "conditions": "dose 10-30 mg/kg, time 9.0 day", "values": [{"smiles": "CCCCn1nc(C(=O)NC(C)(C)CO)cc1-c1cccs1", "Activity": "Dose-dependent-effect"}]}]}
